Assay [1] relates to acute myelocytic leukemia (AML) cell line MV4-11. As to the kind of experiment: Oncology cell growth assay (3-day proliferation, CellTiter-Glo). Type of assay: cell-based. Particulars: Homo sapiens, MV4-11, 72 h, MV4-11 cells, 3000 cells/well, compounds listed under IC50 range headings, read-out: MV411 IC50 (gIC50, inhibition of proliferation). In a few lines: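 MV4-11 AML cells (RPMI 1640, 10% FBS) plated at 3000 cells/well and exposed 72 h to compound at final 10 to 0.0045 μM (3-fold series). Viability read by CellTiter-Glo luminescence; gIC50 from four-parameter logistic fit between DMSO control and no-cell background.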
On the technique in general: In ATP-based viability assays light output follows the ATP content of the culture.

For assay [2], the target named is T1, BRD4 Bromodomain 1 (BRD4 BD1) (Homo sapiens, UniProt O60885).
T1 construct: 44-168 and BRD4 BD2
Kind of assay: AlphaScreen binding assay, BRD4 BD1. Particulars: His-tagged BRD4 BD1 50 nM, biotinylated H4 (1-21) K5/8/12/16 tetra-acetylated peptide 50 nM, compounds listed under IC50 range headings. In outline: (§1)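 Compound dilution series were mixed with His-tagged BRD4 bromodomain and biotinylated tetra-acetylated H4 (1-21) peptide at pH 7.3 (BD1 and peptide at 50 nM, BD2 and peptide at 100 nM). Donor and acceptor beads were then added, and plates were equilibrated at least 1 h before reading. IC50 values were fitted with a four-parameter logistic model.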
A general note: Bead proximity is the source of the signal in Alpha formats.

For assay [3], the target named is T2, BRD4 Bromodomain 2 (BRD4 BD2) (Homo sapiens, UniProt O60885).
T2 construct: 333-460 were cloned, expressed, and purified to homogeneity
Kind of assay: AlphaScreen binding assay, BRD4 BD2. To be noted: His-tagged BRD4 BD2 100 nM, biotinylated H4 (1-21) K5/8/12/16 tetra-acetylated peptide 100 nM, compounds listed under IC50 range headings. In a few lines: as §1

Take `COC(=O)N1c2ccc(-c3cnn(C4CCNCC4)c3)c(Oc3cccc(C#N)c3)c2CC[C@@H]1C` [I-596]: the IC50 was below 500 nM in assay [1], 1000 to 10000 nM in assay [2] and 50 to 500 nM in assay [3].
Regarding `CC(=O)N1c2ccc(-c3cnn(C4CC4)c3)c(Oc3ccccc3)c2CCC1C` (stereo not drawn) [I-597], the IC50 in assay [1] was below 500 nM; in assay [2], 1000 to 10000 nM; in assay [3] it was 50 to 500 nM.
The matching figures for `CC1CCc2c(ccc(-c3cnn(C4CC4)c3)c2Oc2ccccc2)N1C(=O)C1CC1` (stereo not drawn) [I-598]: below 500 nM, 100 to 1000 nM and 50 to 500 nM.
As to `COC(=O)N1c2ccc(-c3cnn(C4CC4)c3)c(Oc3ccccc3)c2CCC1C` (stereo not drawn) [I-599], the IC50 in assay [1] is below 500 nM; in assay [2], 1000 to 10000 nM; in assay [3], 50 to 500 nM.
Take `CC(=O)N1c2ccc(-c3cnn(C4COC4)c3)c(OC[C@@H]3CCNC3)c2CC[C@@H]1C` [I-600]: the IC50 in assay [1] is above 1000 nM; in assay [2], 100 to 1000 nM; in assay [3], 50 to 500 nM.
Taken in the same sequence, the figures for `CC(=O)N1c2ccc(-c3cnn(C4CC4)c3)c(OC[C@@H]3CCNC3)c2CC[C@@H]1C` [I-602] were 500 to 1000 nM, 100 to 1000 nM and 50 to 500 nM.
Taken in the same sequence, the figures for `CC(=O)N1c2ccc(-c3cnn(C4CC4)c3)c(OC[C@H]3CCNC3)c2CC[C@@H]1C` [I-603] were above 1000 nM, 100 to 1000 nM and 50 to 500 nM.

The values are drawn from patent US10611750B2, “Tetrahydroquinoline compositions as bet bromodomain inhibitors” (FORMA Therapeutics, Inc., priority 2013, dated 2020).
